# From ChEMBL document CHEMBL5465560, “Selectivity Literature for EUbOPEN Chemogenomic Library” (2024)
# What was measured:
# [1] = biological target: Protein kinase C theta type (Homo sapiens, UniProt Q04759); assay: Selectivity interaction (Millipore kinase profiler) EUB0000124b PRKCQ; conditions: at 10 µM
# [2] = biological target: Calcium/calmodulin-dependent protein kinase type 1D (Homo sapiens) (UniProt Q8IU85); assay: Selectivity interaction (KinomeScan (DiscoverX)) EUB0001049a CAMK1D; conditions: at 1 µM
# [3] = biological target: Cyclin-dependent kinase 9 (Homo sapiens, UniProt P50750); assay: Selectivity interaction (KinomeScan (DiscoverX)) EUB0001049a CDK9; conditions: at 1 µM
# [4] = biological target: Casein kinase I isoform alpha (Homo sapiens, UniProt P48729); assay: Selectivity interaction (KinomeScan (DiscoverX)) EUB0001049a CSNK1A1; conditions: at 1 µM
# [5] = biological target: Serine/threonine-protein kinase PAK 6 (Homo sapiens) (UniProt Q9NQU5); assay: Selectivity interaction (KinomeScan (DiscoverX)) EUB0001049a PAK6; conditions: at 1 µM
# [6] = biological target: Serine/threonine-protein kinase SIK3 (Homo sapiens) (UniProt Q9Y2K2); assay: Selectivity interaction (KinomeScan (DiscoverX)) EUB0001049a SIK3; conditions: at 1 µM
# [7] = biological target: Microtubule-associated serine/threonine-protein kinase 1 (Homo sapiens) (UniProt Q9Y2H9); assay: Selectivity interaction (Ambit KINOMEscan and KiNATiv profiling in Jurkat cells) EUB0000090b MAST1; type: cell-based; conditions: at 1 µM
# [8] = biological target: T1, Myosin light chain kinase family member 4 (Homo sapiens) (UniProt Q86YV6); assay: Selectivity interaction (Ambit KINOMEscan and KiNATiv profiling in Jurkat cells) EUB0000090b MYLK4; type: cell-based; conditions: at 1 µM
# T1 sequence (whole entry): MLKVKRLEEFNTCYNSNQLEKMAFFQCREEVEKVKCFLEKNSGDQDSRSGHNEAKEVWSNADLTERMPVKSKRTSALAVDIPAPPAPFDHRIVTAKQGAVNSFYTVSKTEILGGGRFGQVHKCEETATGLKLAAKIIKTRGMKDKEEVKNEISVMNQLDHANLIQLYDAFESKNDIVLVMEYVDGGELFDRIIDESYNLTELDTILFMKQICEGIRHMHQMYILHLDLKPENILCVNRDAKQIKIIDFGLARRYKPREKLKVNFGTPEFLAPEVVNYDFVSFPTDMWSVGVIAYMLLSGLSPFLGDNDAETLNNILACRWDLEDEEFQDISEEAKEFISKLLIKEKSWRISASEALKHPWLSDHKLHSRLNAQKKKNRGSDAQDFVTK
# [9] = biological target: Serine/threonine-protein kinase Nek6 (Homo sapiens) (UniProt Q9HC98); assay: Selectivity interaction (Kinase panel (Invitrogen)) EUB0000639a NEK6; conditions: at 200 nM
# [10] = biological target: T2, SNF-related serine/threonine-protein kinase (Homo sapiens) (UniProt Q9NRH2); assay: Selectivity interaction (ActivX KiNativ screen (kinase selectivity in THP-1 cell lysates)) EUB0000639a SNRK; type: subcellular; conditions: lysate, at 0.01 µM
# T2 sequence (whole entry): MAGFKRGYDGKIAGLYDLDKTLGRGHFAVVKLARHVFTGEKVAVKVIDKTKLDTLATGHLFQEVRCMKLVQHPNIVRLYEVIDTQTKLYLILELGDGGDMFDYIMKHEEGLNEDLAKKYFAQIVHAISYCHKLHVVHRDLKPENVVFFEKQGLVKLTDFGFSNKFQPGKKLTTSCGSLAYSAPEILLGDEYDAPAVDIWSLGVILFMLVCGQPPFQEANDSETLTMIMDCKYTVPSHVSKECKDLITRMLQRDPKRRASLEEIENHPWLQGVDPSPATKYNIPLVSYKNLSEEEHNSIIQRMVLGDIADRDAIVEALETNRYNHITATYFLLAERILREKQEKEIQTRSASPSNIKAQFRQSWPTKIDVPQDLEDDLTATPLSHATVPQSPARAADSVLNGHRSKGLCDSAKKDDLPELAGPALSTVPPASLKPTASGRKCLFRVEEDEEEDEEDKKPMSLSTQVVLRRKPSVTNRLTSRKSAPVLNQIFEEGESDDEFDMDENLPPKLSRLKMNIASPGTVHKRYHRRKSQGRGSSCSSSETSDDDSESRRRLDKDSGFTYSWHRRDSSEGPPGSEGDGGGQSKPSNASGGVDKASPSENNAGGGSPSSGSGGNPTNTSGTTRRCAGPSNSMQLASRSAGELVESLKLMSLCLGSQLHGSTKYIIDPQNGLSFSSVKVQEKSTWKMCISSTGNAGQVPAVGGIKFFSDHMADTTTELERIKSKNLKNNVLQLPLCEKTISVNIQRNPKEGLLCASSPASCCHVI
# [11] = biological target: Proto-oncogene tyrosine-protein kinase ROS (Homo sapiens) (UniProt P08922); assay: Selectivity interaction (KinomeScan (DiscoverX)) EUB0000695a ROS1; conditions: at 100 nM
# [12] = biological target: Serine/threonine-protein kinase 38-like (Homo sapiens) (UniProt Q9Y2H1); assay: Selectivity interaction (KinomeScan (DiscoverX)) EUB0000695a STK38L; conditions: at 100 nM
# [13] = tested on: eIF-2-alpha kinase GCN2 (Homo sapiens), Q9P2K8 [S808G]; assay: Selectivity interaction (KinomeScan (DiscoverX)) EUB0000595a EIF2AK4; conditions: at 10 µM
# [14] = biological target: Protein kinase C delta type (Homo sapiens) (UniProt Q05655); assay: Selectivity interaction (KinomeScan (DiscoverX)) EUB0000595a PRKCD; conditions: at 10 µM
# [15] = biological target: T3, Cyclin-dependent kinase-like 2 (Homo sapiens) (UniProt Q92772); assay: Selectivity interaction (KinomeScan (DiscoverX)) EUB0001079a CDKL2; conditions: at 1 µM
# T3 sequence (whole entry): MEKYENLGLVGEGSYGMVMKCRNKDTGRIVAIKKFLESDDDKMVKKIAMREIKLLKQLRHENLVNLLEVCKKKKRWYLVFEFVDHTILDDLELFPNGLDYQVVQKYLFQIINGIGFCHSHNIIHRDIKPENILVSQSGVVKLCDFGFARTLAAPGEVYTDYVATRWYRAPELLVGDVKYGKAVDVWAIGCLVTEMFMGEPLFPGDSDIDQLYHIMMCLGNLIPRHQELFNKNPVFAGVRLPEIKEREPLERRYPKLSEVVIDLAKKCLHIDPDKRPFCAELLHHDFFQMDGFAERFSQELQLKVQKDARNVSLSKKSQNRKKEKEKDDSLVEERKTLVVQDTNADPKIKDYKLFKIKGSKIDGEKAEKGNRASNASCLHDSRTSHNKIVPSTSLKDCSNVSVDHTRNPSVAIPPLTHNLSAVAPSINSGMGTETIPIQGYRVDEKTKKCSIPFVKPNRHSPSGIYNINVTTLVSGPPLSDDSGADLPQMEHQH
# [16] = biological target: Casein kinase II subunit alpha' (Homo sapiens) (UniProt P19784); assay: Selectivity interaction (ProQinase) EUB0000171b CSNK2A2
# [17] = biological target: Mitogen-activated protein kinase kinase kinase 20 (Homo sapiens) (UniProt Q9NYL2); assay: Selectivity interaction (KinomeScan (DiscoverX)) EUB0000607a MAP3K20; conditions: at 10 µM
# Sequence of Casein kinase II subunit alpha' (Homo sapiens) (P19784 whole entry, looked up): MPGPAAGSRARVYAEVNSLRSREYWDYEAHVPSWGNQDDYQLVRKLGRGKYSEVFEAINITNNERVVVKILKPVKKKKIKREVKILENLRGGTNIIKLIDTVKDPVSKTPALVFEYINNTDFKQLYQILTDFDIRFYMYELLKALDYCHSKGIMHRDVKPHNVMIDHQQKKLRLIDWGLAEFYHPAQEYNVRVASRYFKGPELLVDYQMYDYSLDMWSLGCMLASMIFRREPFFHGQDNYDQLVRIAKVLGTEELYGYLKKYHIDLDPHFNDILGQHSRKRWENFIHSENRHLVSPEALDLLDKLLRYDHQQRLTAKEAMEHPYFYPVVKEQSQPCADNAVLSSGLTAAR
# Sequence of Protein kinase C delta type (Homo sapiens) (Q05655 whole entry, looked up): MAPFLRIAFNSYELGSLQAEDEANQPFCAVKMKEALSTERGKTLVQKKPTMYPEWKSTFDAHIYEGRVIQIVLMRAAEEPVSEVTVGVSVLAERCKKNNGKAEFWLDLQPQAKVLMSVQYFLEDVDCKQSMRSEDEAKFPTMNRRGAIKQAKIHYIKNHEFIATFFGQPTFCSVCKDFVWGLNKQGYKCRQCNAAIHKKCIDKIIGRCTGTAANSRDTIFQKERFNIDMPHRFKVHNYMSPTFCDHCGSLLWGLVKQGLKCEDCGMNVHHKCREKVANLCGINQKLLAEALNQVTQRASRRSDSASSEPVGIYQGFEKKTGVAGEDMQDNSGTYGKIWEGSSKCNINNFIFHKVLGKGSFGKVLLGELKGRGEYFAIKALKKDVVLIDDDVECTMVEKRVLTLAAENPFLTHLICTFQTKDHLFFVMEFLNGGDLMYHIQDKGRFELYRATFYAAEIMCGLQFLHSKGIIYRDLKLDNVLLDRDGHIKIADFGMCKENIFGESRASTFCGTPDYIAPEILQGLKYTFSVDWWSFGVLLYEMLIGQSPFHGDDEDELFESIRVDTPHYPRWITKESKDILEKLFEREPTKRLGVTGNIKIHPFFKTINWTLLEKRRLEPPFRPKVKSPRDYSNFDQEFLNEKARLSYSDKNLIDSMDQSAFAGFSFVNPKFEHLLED
# Sequence of Calcium/calmodulin-dependent protein kinase type 1D (Homo sapiens) (Q8IU85 whole entry, looked up): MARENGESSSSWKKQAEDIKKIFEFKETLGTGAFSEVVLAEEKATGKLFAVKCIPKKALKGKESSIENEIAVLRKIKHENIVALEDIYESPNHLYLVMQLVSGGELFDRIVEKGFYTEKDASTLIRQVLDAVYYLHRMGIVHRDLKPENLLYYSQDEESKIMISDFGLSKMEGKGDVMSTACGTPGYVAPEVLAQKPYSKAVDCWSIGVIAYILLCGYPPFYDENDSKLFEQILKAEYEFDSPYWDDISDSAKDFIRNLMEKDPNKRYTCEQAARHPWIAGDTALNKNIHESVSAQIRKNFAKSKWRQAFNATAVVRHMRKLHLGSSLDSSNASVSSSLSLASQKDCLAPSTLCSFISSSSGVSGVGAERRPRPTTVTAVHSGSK
# Sequence of Protein kinase C theta type (Q04759 whole entry, looked up): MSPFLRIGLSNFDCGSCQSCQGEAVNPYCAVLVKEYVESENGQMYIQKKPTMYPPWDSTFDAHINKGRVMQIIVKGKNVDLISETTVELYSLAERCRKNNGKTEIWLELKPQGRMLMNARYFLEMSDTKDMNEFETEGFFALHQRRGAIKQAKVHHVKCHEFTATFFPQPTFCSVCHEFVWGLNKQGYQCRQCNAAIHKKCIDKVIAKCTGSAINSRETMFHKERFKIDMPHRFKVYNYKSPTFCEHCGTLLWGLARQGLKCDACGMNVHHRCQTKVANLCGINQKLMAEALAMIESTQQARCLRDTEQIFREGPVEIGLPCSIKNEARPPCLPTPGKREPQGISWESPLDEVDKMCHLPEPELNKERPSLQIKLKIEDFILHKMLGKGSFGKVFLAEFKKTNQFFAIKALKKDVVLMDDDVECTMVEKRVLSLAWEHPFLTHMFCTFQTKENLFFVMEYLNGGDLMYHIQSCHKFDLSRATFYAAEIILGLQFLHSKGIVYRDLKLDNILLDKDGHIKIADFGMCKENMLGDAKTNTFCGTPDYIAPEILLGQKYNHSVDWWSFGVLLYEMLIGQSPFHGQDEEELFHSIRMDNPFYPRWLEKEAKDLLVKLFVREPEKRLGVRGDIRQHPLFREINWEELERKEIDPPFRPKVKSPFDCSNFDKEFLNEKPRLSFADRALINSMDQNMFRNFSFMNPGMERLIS
# Sequence of eIF-2-alpha kinase GCN2 (Homo sapiens), Q9P2K8 [S808G] (Q9P2K8 whole entry S808G): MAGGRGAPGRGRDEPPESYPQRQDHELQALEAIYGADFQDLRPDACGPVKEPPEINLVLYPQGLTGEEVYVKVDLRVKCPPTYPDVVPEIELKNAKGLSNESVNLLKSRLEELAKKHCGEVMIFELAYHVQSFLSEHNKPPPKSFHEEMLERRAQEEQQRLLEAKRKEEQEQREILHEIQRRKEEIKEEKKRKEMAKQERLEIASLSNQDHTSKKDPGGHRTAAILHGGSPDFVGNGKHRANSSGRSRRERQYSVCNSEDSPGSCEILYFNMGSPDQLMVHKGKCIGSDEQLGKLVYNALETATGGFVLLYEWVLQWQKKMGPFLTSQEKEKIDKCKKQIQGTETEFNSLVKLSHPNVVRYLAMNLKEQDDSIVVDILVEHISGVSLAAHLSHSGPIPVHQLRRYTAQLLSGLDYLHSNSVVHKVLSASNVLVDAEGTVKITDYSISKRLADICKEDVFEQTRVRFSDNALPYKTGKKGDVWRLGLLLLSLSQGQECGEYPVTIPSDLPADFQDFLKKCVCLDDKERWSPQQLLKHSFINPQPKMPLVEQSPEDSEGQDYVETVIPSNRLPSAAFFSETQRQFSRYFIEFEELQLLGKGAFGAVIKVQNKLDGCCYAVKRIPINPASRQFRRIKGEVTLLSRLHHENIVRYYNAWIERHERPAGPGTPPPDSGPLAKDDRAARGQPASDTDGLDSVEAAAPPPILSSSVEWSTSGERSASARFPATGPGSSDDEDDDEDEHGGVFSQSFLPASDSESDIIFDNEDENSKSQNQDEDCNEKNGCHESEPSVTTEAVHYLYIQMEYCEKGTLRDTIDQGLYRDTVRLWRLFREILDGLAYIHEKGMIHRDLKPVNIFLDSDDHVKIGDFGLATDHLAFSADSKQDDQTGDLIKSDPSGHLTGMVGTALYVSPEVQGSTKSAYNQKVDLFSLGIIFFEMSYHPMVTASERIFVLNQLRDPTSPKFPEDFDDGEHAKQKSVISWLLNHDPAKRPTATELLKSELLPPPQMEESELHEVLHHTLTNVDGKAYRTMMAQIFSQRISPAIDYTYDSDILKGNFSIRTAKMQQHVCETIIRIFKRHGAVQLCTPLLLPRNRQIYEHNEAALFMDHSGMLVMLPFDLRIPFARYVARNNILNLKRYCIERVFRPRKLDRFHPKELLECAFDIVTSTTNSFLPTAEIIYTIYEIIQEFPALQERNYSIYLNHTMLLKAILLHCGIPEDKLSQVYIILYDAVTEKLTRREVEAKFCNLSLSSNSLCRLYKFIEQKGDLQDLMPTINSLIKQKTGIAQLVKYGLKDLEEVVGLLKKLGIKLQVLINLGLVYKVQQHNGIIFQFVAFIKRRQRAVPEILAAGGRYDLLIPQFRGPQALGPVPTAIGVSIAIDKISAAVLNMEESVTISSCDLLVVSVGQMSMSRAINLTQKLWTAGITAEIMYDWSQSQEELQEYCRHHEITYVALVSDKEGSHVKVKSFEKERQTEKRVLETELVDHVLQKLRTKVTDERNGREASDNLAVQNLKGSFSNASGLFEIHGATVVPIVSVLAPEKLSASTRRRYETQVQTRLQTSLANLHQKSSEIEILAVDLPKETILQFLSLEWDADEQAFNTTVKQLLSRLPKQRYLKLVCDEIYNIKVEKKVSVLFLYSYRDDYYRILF
# Sequence of Cyclin-dependent kinase 9 (P50750 whole entry, canonical isoform): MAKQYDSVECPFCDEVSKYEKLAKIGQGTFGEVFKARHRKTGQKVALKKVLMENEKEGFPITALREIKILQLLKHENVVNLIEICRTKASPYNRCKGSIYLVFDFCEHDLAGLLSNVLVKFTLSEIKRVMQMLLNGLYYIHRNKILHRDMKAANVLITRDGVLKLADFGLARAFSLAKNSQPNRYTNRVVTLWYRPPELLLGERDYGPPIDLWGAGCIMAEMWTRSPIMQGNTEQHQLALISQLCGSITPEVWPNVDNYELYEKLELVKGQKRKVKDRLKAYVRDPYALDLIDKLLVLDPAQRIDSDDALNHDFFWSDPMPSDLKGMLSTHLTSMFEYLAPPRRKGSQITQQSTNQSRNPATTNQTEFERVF
# Sequence of Casein kinase I isoform alpha (P48729 2-337 limits assumed): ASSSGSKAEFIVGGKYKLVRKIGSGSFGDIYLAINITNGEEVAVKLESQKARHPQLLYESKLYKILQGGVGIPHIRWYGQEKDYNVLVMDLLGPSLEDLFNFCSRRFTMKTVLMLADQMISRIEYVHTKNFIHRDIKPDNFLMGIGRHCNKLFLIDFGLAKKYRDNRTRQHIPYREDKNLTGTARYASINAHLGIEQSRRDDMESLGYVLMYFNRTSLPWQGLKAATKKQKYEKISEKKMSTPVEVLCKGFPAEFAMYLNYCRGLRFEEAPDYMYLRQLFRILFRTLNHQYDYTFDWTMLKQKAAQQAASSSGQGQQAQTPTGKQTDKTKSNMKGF
# Sequence of Serine/threonine-protein kinase Nek6 (Homo sapiens) (Q9HC98 whole entry): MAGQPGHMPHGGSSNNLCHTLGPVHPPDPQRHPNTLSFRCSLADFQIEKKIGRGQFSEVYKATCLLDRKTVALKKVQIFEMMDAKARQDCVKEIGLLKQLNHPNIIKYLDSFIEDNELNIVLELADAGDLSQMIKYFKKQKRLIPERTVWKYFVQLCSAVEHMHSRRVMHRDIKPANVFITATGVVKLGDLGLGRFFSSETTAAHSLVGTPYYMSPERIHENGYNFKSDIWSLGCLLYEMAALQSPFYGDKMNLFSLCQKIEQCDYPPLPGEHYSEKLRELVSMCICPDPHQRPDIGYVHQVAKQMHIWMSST
structure (smiles),measurement,setting,value
CC(=O)Nc1cccc(-n2c(=O)n(C3CC3)c(=O)c3c(Nc4ccc(I)cc4F)n(C)c(=O)c(C)c32)c1,% of control,[1],114%
COc1cc(Nc2nc(C)cc(-c3cnn4nc(OC)ccc34)n2)cc(C(F)(F)F)c1,% of control,[2],84%
same,% of control,[3],100%
same,% of control,[4],77%
same,% of control,[5],75%
same,% of control,[6],82%
CN(C)C/C=C/C(=O)Nc1ccc(C(=O)N2CCCC(Nc3ncc(Cl)c(-c4c[nH]c5ccccc45)n3)C2)cc1 (stereo not drawn),% of control,[7],95%
same,% of control,[8],55%
CC[C@@H]1[C@H](F)C(=O)N[C@@H]1COc1nccc2cc(C(N)=O)c(OC)cc12 [ZIMLOVISERTIB],% of inhibition,[9],6.81%
same,% of inhibition,[10],0.6%
Cc1cc(F)c(C(=O)Nc2cccc(-c3nncn3C(C)C)n2)cc1-n1cnc(C2CC2)c1,% of control,[11],79%
same,% of control,[12],100%
COCC(=O)NC/C=C/c1ccc2ncnc(Nc3ccc(Oc4ccc(C)nc4)c(C)c3)c2c1 [CP-724714],% of control,[13],81%
same,% of control,[14],87%
Nc1cnc(N2CCc3cc(S(=O)(=O)Nc4c(F)cc(Cl)cc4F)cc(N4CCCC4=O)c32)nc1 [TP-020n],% of control,[15],85%
C=CC(=O)Nc1cccc(C(=O)Nc2ccc(Nc3cc(-c4[nH]c(SC)nc4C)ccn3)cc2)c1,% of control,[16]; at 1 µM,80%
same,% of control,[16]; at 5 µM,52%
CNC(=O)Nc1ccc(-c2nc(N3CC4CCC(C3)O4)c3cnn(C4CCC5(CC4)OCCO5)c3n2)cc1,% of control,[17],77%
